According to US20190054051A1, “DOPA Formulations for Treatments of Parkinson's Disease” (The Board of Trustees of the Leland Stanford Junior …, priority 2017, published 2019):

What was measured:
6-OHDA lesioned mice = assay: Cylinder test, contralateral paw usage (akinesia); type: in vivo; settings: single dose equivalent to 5 mg/Kg DOPA; DOPA = L-DOPA/Benserazide 5 and 10 mg/Kg s/c
ERK = assay: Western blot of ppERK and total ERK in striatum; type: in vivo, mice; settings: 45 minutes after last injection
Description: (§1) After behavioral testing, mice again received their assigned injection and then, 45 minutes later, were decapitated under anesthesia. Tissue samples were processed as follows. Briefly, the brain was dissected, rapidly frozen on dry ice, and stored at −80° C. Striatal tissue was collected from 100 μm coronal slices cut at the level of striatum using a cryostat (Leica CM1950, Leica Biosystems Inc, Buffalo Groove, Ill.). Striatal samples from the intact and the lesioned hemisphere were separately collected in 150p1 of lysis solution (Totally RNA, Ambion, Austin, Tex.). Care was taken to make sure that the tissue samples were collected from similar regions in all the brain samples analyzed, since there are differences in the expression of GRKs from rostral to caudal CPu. […]
(§2) Western blots were quantified using band densitometry in Image J software (NIH version). […] Results are represented as group mean±SEM and analyzed using one-way or repeated-measures ANOVA (RM-ANOVA), with post hoc Bonferroni tests. The mouse cylinder test was analyzed with RM-ANOVA, with group (DOPA and DOPA-ranitidine formulations) as a between-group factor and saline vs. DOPA treatment as a within-group factor. AIMs scores were analyzed using the Kruskal Wallis test for pre-testing (DOPA injected animals) and the Mann-Whitney U test for the post-testing sessions (DOPA vs DOPA-ranitidine formulations). […]

SAPK/JNK = assay: Western blot of phospho SAPK/JNK and total SAPK/JNK in striatum; type: in vivo, mice
Description: as §1, §2

Δ Fos B = assay: Western blot of Δ Fos B accumulation in striatum; design: species or system mice; settings: mouse, in vivo
Description: After behavioral testing, mice again received their assigned injection and then, 45 minutes later, were decapitated under anesthesia. Tissue samples were processed as follows. Briefly, the brain was dissected, rapidly frozen on dry ice, and stored at −80° C. Striatal tissue was collected from 100 μm coronal slices cut at the level of striatum using a cryostat (Leica CM1950, Leica Biosystems Inc, Buffalo Groove, Ill.). Striatal samples from the intact and the lesioned hemisphere were separately collected in 150p1 of lysis solution (Totally RNA, Ambion, Austin, Tex.). Care was taken to make sure that the tissue samples were collected from similar regions in all the brain samples analyzed, since there are differences in the expression of GRKs from rostral to caudal CPu. […] Western blots were quantified using band densitometry in Image J software (NIH version). […] Results are represented as group mean±SEM and analyzed using one-way or repeated-measures ANOVA (RM-ANOVA), with post hoc Bonferroni tests. The mouse cylinder test was analyzed with RM-ANOVA, with group (DOPA and DOPA-ranitidine formulations) as a between-group factor and saline vs. DOPA treatment as a within-group factor. AIMs scores were analyzed using the Kruskal Wallis test for pre-testing (DOPA injected animals) and the Mann-Whitney U test for the post-testing sessions (DOPA vs DOPA-ranitidine formulations). […]

SMILES	contralateral paw usage compared to saline treatment (6-OHDA lesioned mice)	ERK phosphorylation (ppERK) in the lesioned hemisphere (ERK)	phospho JNK level in both the intact and the lesioned hemispheres (SAPK/JNK; no differences between hemispheres)	Δ Fos B accumulation on the lesioned side (Δ Fos B)	phosphorylation of p54 versus the ranitidine/DOPA formulation groups (SAPK/JNK; ranitidine alone group)
N[C@@H](Cc1ccc(O)c(O)c1)C(=O)O [L-DOPA, L-3,4-dihydroxyphenylalanine]	significantly increased contralateral paw usage	increased	elevated	significantly increased on the lesioned side	
CN/C(=C\[N+](=O)[O-])NCCSCc1ccc(CN(C)C)o1 [Ranitidine, N-(2-[(5-[(dimethylamino)methyl]furan-2-yl)methylthio]ethyl)-N′-methyl-2-nitroethene-1,1-diamine]		increased		no effects	reduced in both the intact and lesioned hemispheres
